Laboratory results: ChEMBL document CHEMBL3885861, “Open TG-GATES”

Species on record: Rattus norvegicus
Assay: Open TG-GATES - Regimen: Daily Repeat
Type: toxicity, organism-based, Sprague-Dawley
Design: regimen Daily Repeat, gender Male, age 6 weeks
Conditions: in vivo, po, route gavage; for APTT / Bas / Eos / Fbg / Hb / Ht / Lym / MCHC / MCV / Mono / Neu / PT / Plat / RBC / Ret / WBC: tissue Blood; for KIDNEY_L / KIDNEY_R / KIDNEY_TOTAL: tissue Kidney; for LIVER: tissue Liver; for ALP / ALT / AST / BUN / CRE / Ca / Cl / DBIL / GLC / IP / K / LDH / Na / PL / RALB / TBIL / TG / TP / gamma-GTP: tissue Plasma
[1] = 0 mg/kg, 72 h, dose level Control, time 3 day
[2] = 0 mg/kg, […], dose level Control, time 7 day
[3] = 0 mg/kg, […], dose level Control, time 14 day
[4] = 0 mg/kg, […], dose level Control, time 28 day
[5] = 100 mg/kg, 72 h, dose level Low, time 3 day
[6] = 100 mg/kg, […], dose level Low, time 7 day
[7] = 100 mg/kg, […], dose level Low, time 14 day
[8] = 100 mg/kg, […], dose level Low, time 28 day

## CN(C)C(=N)N=C(N)N [METFORMIN]
[1]
  TERMINAL_BW: 224.4 g
  APTT: 16.8 s
  Bas: 0.2%
  Eos: 1%
  Fbg: 246.8 mg/dL
  Hb: 13.1 g/dL
  Ht: 38.7%
  Lym: 75.4%
  MCHC: 34%
  MCV: 64.1 fL
  Mono: 3.4%
  Neu: 19.6%
  PT: 12.6 s
  Plat: 121.6 x10_4/uL
  RBC: 603.2 x10_4/ul
  Ret: 6.9%
  WBC: 114.3 x10_2/uL
  KIDNEY_L: 1 g
  KIDNEY_R: 1 g
  KIDNEY_TOTAL: 2 g
  LIVER: 10.6 g
  ALP: 1345.6 IU/L
  ALT: 69.8 IU/L
  AST: 80.6 IU/L
  BUN: 13 mg/dL
  CRE: 0.2 mg/dL
  Ca: 11 mg/dL
  Cl: 104.6 meq/L
  DBIL: 0.014 mg/dL
  GLC: 184.8 mg/dL
  IP: 8.5 mg/dL
  K: 4 meq/L
  LDH: 69.8 IU/L
  Na: 140.8 meq/L
  PL: 143.6 mg/dL
  RALB: 2.5 g/dL
  TBIL: 0.034 mg/dL
  TG: 71.2 mg/dL
  TP: 5.5 g/dL
  gamma-GTP: 1 IU/L
[2]
  TERMINAL_BW: 255.4 g
  APTT: 16.6 s
  Bas: 0%
  Eos: 1.2%
  Fbg: 272.8 mg/dL
  Hb: 13.6 g/dL
  Ht: 40.1%
  Lym: 77.8%
  MCHC: 34%
  MCV: 64.1 fL
  Mono: 3%
  Neu: 17.6%
  PT: 12 s
  Plat: 126.8 x10_4/uL
  RBC: 626.4 x10_4/ul
  Ret: 6%
  WBC: 90.7 x10_2/uL
  KIDNEY_L: 1 g
  KIDNEY_R: 1 g
  KIDNEY_TOTAL: 2.1 g
  LIVER: 11.7 g
  ALP: 1433.2 IU/L
  ALT: 43.2 IU/L
  AST: 69.6 IU/L
  BUN: 16.4 mg/dL
  CRE: 0.2 mg/dL
  Ca: 11.3 mg/dL
  Cl: 105.2 meq/L
  DBIL: 0.014 mg/dL
  GLC: 187 mg/dL
  IP: 7.8 mg/dL
  K: 4.3 meq/L
  LDH: 66.6 IU/L
  Na: 141.4 meq/L
  PL: 145.2 mg/dL
  RALB: 2.7 g/dL
  TBIL: 0.034 mg/dL
  TG: 91 mg/dL
  TP: 5.9 g/dL
  gamma-GTP: 1 IU/L
[3]
  TERMINAL_BW: 310.2 g
  APTT: 18.3 s
  Bas: 0%
  Eos: 0.8%
  Fbg: 252.2 mg/dL
  Hb: 14.1 g/dL
  Ht: 40.7%
  Lym: 77.8%
  MCHC: 34.5%
  MCV: 60.5 fL
  Mono: 3.4%
  Neu: 17.4%
  PT: 12.3 s
  Plat: 123 x10_4/uL
  RBC: 674 x10_4/ul
  Ret: 4.8%
  WBC: 104.1 x10_2/uL
  KIDNEY_L: 1.2 g
  KIDNEY_R: 1.2 g
  KIDNEY_TOTAL: 2.4 g
  LIVER: 14.4 g
  ALP: 1342.2 IU/L
  ALT: 43.2 IU/L
  AST: 81 IU/L
  BUN: 16.4 mg/dL
  CRE: 0.2 mg/dL
  Ca: 11 mg/dL
  Cl: 105.2 meq/L
  DBIL: 0.014 mg/dL
  GLC: 188.2 mg/dL
  IP: 7.1 mg/dL
  K: 4 meq/L
  LDH: 168 IU/L
  Na: 142.8 meq/L
  PL: 150.6 mg/dL
  RALB: 2.7 g/dL
  TBIL: 0.034 mg/dL
  TG: 139.2 mg/dL
  TP: 6 g/dL
  gamma-GTP: 1 IU/L
[4]
  TERMINAL_BW: 386.6 g
  APTT: 17.2 s
  Bas: 0.2%
  Eos: 1.4%
  Fbg: 260 mg/dL
  Hb: 15 g/dL
  Ht: 43.2%
  Lym: 78.6%
  MCHC: 34.7%
  MCV: 56.9 fL
  Mono: 2.6%
  Neu: 16.8%
  PT: 12.1 s
  Plat: 103.4 x10_4/uL
  RBC: 759.6 x10_4/ul
  Ret: 2.5%
  WBC: 118 x10_2/uL
  KIDNEY_L: 1.4 g
  KIDNEY_R: 1.4 g
  KIDNEY_TOTAL: 2.8 g
  LIVER: 15.6 g
  ALP: 1085 IU/L
  ALT: 41.8 IU/L
  AST: 60.8 IU/L
  BUN: 16 mg/dL
  CRE: 0.2 mg/dL
  Ca: 11.1 mg/dL
  Cl: 105.4 meq/L
  DBIL: 0.014 mg/dL
  GLC: 176.2 mg/dL
  IP: 6.6 mg/dL
  K: 3.9 meq/L
  LDH: 51.8 IU/L
  Na: 145 meq/L
  PL: 143.4 mg/dL
  RALB: 2.7 g/dL
  TBIL: 0.036 mg/dL
  TG: 134.2 mg/dL
  TP: 6.1 g/dL
  gamma-GTP: 1 IU/L
[5]
  TERMINAL_BW: 222.9 g
  APTT: 16.7 s
  Bas: 0.2%
  Eos: 0.6%
  Fbg: 255 mg/dL
  Hb: 13.3 g/dL
  Ht: 39.3%
  Lym: 79%
  MCHC: 33.9%
  MCV: 64.1 fL
  Mono: 3%
  Neu: 16.6%
  PT: 12.6 s
  Plat: 114.7 x10_4/uL
  RBC: 612.6 x10_4/ul
  Ret: 6.7%
  WBC: 119.8 x10_2/uL
  KIDNEY_L: 0.9 g
  KIDNEY_R: 0.9 g
  KIDNEY_TOTAL: 1.9 g
  LIVER: 10.6 g
  ALP: 1574.6 IU/L
  ALT: 56.2 IU/L
  AST: 78.6 IU/L
  BUN: 15 mg/dL
  CRE: 0.2 mg/dL
  Ca: 11 mg/dL
  Cl: 105.6 meq/L
  DBIL: 0.012 mg/dL
  GLC: 173.2 mg/dL
  IP: 8.3 mg/dL
  K: 4 meq/L
  LDH: 80.4 IU/L
  Na: 141.8 meq/L
  PL: 141.6 mg/dL
  RALB: 2.6 g/dL
  TBIL: 0.03 mg/dL
  TG: 72.8 mg/dL
  TP: 5.5 g/dL
  gamma-GTP: 1 IU/L
[6]
  TERMINAL_BW: 255.8 g
  APTT: 18.8 s
  Bas: 0%
  Eos: 1%
  Fbg: 277.8 mg/dL
  Hb: 13.6 g/dL
  Ht: 40.1%
  Lym: 77.8%
  MCHC: 33.9%
  MCV: 63 fL
  Mono: 3.4%
  Neu: 17.8%
  PT: 12.1 s
  Plat: 130 x10_4/uL
  RBC: 638 x10_4/ul
  Ret: 5.1%
  WBC: 97.2 x10_2/uL
  KIDNEY_L: 1 g
  KIDNEY_R: 1 g
  KIDNEY_TOTAL: 2.1 g
  LIVER: 12.7 g
  ALP: 1216.2 IU/L
  ALT: 59.4 IU/L
  AST: 80.2 IU/L
  BUN: 15.2 mg/dL
  CRE: 0.2 mg/dL
  Ca: 10.8 mg/dL
  Cl: 105.8 meq/L
  DBIL: 0.012 mg/dL
  GLC: 189.8 mg/dL
  IP: 7.9 mg/dL
  K: 4.1 meq/L
  LDH: 69.6 IU/L
  Na: 142 meq/L
  PL: 144 mg/dL
  RALB: 2.6 g/dL
  TBIL: 0.028 mg/dL
  TG: 96.4 mg/dL
  TP: 5.7 g/dL
  gamma-GTP: 0.8 IU/L
[7]
  TERMINAL_BW: 319.6 g
  APTT: 17.4 s
  Bas: 0%
  Eos: 1.2%
  Fbg: 255.2 mg/dL
  Hb: 13.9 g/dL
  Ht: 40.1%
  Lym: 77.6%
  MCHC: 34.6%
  MCV: 60.5 fL
  Mono: 2.8%
  Neu: 17.6%
  PT: 12.2 s
  Plat: 122.5 x10_4/uL
  RBC: 662.2 x10_4/ul
  Ret: 5%
  WBC: 109.5 x10_2/uL
  KIDNEY_L: 1.3 g
  KIDNEY_R: 1.3 g
  KIDNEY_TOTAL: 2.6 g
  LIVER: 15.1 g
  ALP: 1413 IU/L
  ALT: 51.8 IU/L
  AST: 70.6 IU/L
  BUN: 16.2 mg/dL
  CRE: 0.2 mg/dL
  Ca: 11 mg/dL
  Cl: 104 meq/L
  DBIL: 0.014 mg/dL
  GLC: 182.4 mg/dL
  IP: 7.2 mg/dL
  K: 3.9 meq/L
  LDH: 78.6 IU/L
  Na: 142.6 meq/L
  PL: 161 mg/dL
  RALB: 2.7 g/dL
  TBIL: 0.03 mg/dL
  TG: 116 mg/dL
  TP: 6 g/dL
  gamma-GTP: 1.2 IU/L
[8]
  TERMINAL_BW: 415.8 g
  APTT: 17.7 s
  Bas: 0.2%
  Eos: 1%
  Fbg: 259.2 mg/dL
  Hb: 15 g/dL
  Ht: 43%
  Lym: 76.6%
  MCHC: 34.8%
  MCV: 56.3 fL
  Mono: 3%
  Neu: 18.6%
  PT: 11.9 s
  Plat: 100.3 x10_4/uL
  RBC: 764.2 x10_4/ul
  Ret: 2.6%
  WBC: 134 x10_2/uL
  KIDNEY_L: 1.5 g
  KIDNEY_R: 1.5 g
  KIDNEY_TOTAL: 3 g
  LIVER: 17.9 g
  ALP: 1072.4 IU/L
  ALT: 46.4 IU/L
  AST: 67.8 IU/L
  BUN: 17.4 mg/dL
  CRE: 0.2 mg/dL
  Ca: 11.2 mg/dL
  Cl: 104.6 meq/L
  DBIL: 0.014 mg/dL
  GLC: 184.2 mg/dL
  IP: 6.7 mg/dL
  K: 3.9 meq/L
  LDH: 56.8 IU/L
  Na: 145.6 meq/L
  PL: 165.4 mg/dL
  RALB: 2.8 g/dL
  TBIL: 0.04 mg/dL
  TG: 183.8 mg/dL
  TP: 6.3 g/dL
  gamma-GTP: 1 IU/L
